In a melting point compilation (Tetko et al.; mined from patent text by program, amines drawn as free bases though some values may be those of a salt):

Question: With `CC(=O)OC1CCC2(C)C(CCC3=C4C(=O)CC(C(C)CCC=O)C4(C)CCC32)C1` (stereo not given) as the molecule, how does the melting point read?
Answer: 162 to 164 °C

Question: Which melting point does the source give for `O=Cc1cc(-n2nnnc2C(F)(F)F)ccc1OC(F)(F)F` here?
Answer: 40 to 42 °C

Question: For `O=C(c1cc2ccccc2cn1)N(O)CCc1ccccc1`, which melting point is on record?
Answer: 90 to 95 °C

Question: Which melting point does the source give for `CC(C)OC(=O)c1cc(-n2c(=O)[nH]cc(C#N)c2=O)c(F)cc1Cl` here?
Answer: 143 to 145 °C

Question: Which melting point does the source give for `O=C(c1ccc(Cl)cc1)c1c(CN2CCN(c3ccccc3)CC2)csc1N1C(=O)c2ccccc2C1=O` here?
Answer: 220 to 222 °C

Question: Which melting point does the source give for `CN(C(=O)COc1cc(C(F)(F)C(F)(F)F)no1)c1ccccc1` here?
Answer: 88 to 89 °C

Question: For `CCOC(=O)C1=C(C)NN=C(CC)C1c1ccc([N+](=O)[O-])cc1` (stereo not given), which melting point is on record?
Answer: 141 °C

Question: Which melting point does the source give for `Cc1c(Nc2c(C#N)cnc3scc(CO)c23)ccc2[nH]ccc12` here?
Answer: 230 °C

Question: Which melting point does the source give for `OCC1OC(n2c(S)nc3c(NCc4ccccc4)ncnc32)C(O)C1O` (stereo not given) here?
Answer: 145 to 148 °C

Question: For `CC(C)NC(=O)CSCC(=O)c1ccc(-c2ccccc2)cc1`, which melting point is on record?
Answer: 120 to 121 °C

Question: With `CCN(CC)CC1CN=C(NC(=O)Nc2ccccc2)O1` (stereo not given) as the molecule, how does the melting point read?
Answer: 148 °C

Question: Which melting point does the source give for `COc1ccc(F)cc1C(C)(C)CC(O)(Cn1cc(CO)c(=O)c2ccccc21)C(F)(F)F` (stereo not given) here?
Answer: 183 to 184 °C

Question: Which melting point does the source give for `C=C(C)C(=O)OCCCCCCCCCCCOC(=O)c1cc(OC(=O)c2ccc(/C=C/C(=O)OC)cc2)ccc1O` here?
Answer: 51 °C

Question: For `CC(=O)SCC(Cc1ccccc1)C(=O)Nc1cc(Cl)ccc1C(=O)O` (stereo not given), which melting point is on record?
Answer: 143 to 144 °C

Question: Which melting point does the source give for `O=c1[nH]c2ccc3c(c2n(Cc2ccccc2)c1=O)CCCN3` here?
Answer: > 300 °C

Question: With `Cc1cc(CCCOc2c(C)cc(C(=N)NO)cc2C)on1` as the molecule, how does the melting point read?
Answer: 129 to 130 °C

Question: With `O[C@@H]1c2ccccc2CN2CCC[C@@H]12` (relative stereo) as the molecule, how does the melting point read?
Answer: 131 to 133 °C

Question: With `O=C(O)C(CCOc1ccccc1)CCOc1ccccc1` as the molecule, how does the melting point read?
Answer: 85 to 86 °C

Question: For `COC(=O)c1ccc(C(=O)NS(=O)(=O)c2ccc(CCNC(=O)Cc3ccc(OC)c(OC)c3)cc2)cn1`, which melting point is on record?
Answer: 164 to 169 °C

Question: With `CC(=O)Nc1ccc(Oc2ccc(S(C)=O)cc2)cc1` (stereo not given) as the molecule, how does the melting point read?
Answer: 159 to 161 °C

Question: Which melting point does the source give for `O=C(C#Cc1ccc(C(F)(F)F)cc1Cl)Nc1ccc2oc(CN3CCCC3)nc2c1` here?
Answer: 218 to 223 °C

Question: With `CN(C)CC(C)(C)Cn1ccc(-c2ccc(F)cc2)c1-c1ccncc1` as the molecule, how does the melting point read?
Answer: 101 to 103 °C

Question: Which melting point does the source give for `CCOc1cc(N(C)C)c(Cl)cc1C(=O)NC1CCN(Cc2ccccc2)C1` (stereo not given) here?
Answer: 112 to 113 °C

Question: For `Cc1cc(C)n(Cc2ccc3c(c2)Cc2c(-c4ccsc4)n[nH]c2-3)n1`, which melting point is on record?
Answer: 257 to 260 °C

Question: With `CCOC(=O)c1c(S(=O)(=O)c2ccc(C)cc2)nc(-c2ccccc2)c([N+](=O)[O-])c1C(=O)OCC` as the molecule, how does the melting point read?
Answer: 115 to 117 °C

Question: With `Clc1ccc(-c2noc3ccc(CBr)cc23)cc1` as the molecule, how does the melting point read?
Answer: 142 °C

Question: For `N#Cc1cc(-c2ccoc2)c2ccc(COc3cc(F)cc(-c4cccs4)c3)cc2n1`, which melting point is on record?
Answer: 181 to 183 °C

Question: With `O=C1Nc2ncccc2C12COc1cc3c(cc12)OCCO3` (stereo not given) as the molecule, how does the melting point read?
Answer: > 250 °C

Question: For `CC(=O)c1ccc(OCc2ccccc2)c(OC/C=C/CN2CCC(c3noc4cc(F)ccc34)CC2)c1`, which melting point is on record?
Answer: 124 to 125 °C

Question: With `CCOc1nc(Nc2cccc(C(F)(F)F)c2)nc(N2CCN(C(=O)c3ccn(CC)n3)CC2)n1` as the molecule, how does the melting point read?
Answer: 145 to 148 °C

Question: For `CNC(=O)c1ncc2[nH]c3ccc(N)cc3c2c1C`, which melting point is on record?
Answer: 281 to 285 °C

Question: For `CC(C)(O)Cn1c(Oc2ccc(-n3c4ncccc4n4ccnc34)cc2)nc2ccccc21`, which melting point is on record?
Answer: 208 to 211 °C

Question: Which melting point does the source give for `Cc1[nH]c(=O)n(-c2cc(C(=O)OC(C)C)c(Cl)cc2F)c(=O)c1I` here?
Answer: 211 to 213 °C

Question: With `O=C(O)[C@@H]1Cc2cc(O)c(O)cc2CN1C(=O)c1ccccc1` as the molecule, how does the melting point read?
Answer: 189 to 192 °C

Question: Which melting point does the source give for `CN1C(C)(C)CC(O[Si](c2ccccc2)(c2ccccc2)c2ccccc2)CC1(C)C` here?
Answer: 109 to 110 °C

Question: Which melting point does the source give for `O=C(N[C@H]1CCCNC1=O)c1cccc(F)c1` here?
Answer: 164 to 166 °C

Question: Which melting point does the source give for `CCCCC(CC)Cn1c(C)cc(C)c(C#N)c1=O` (stereo not given) here?
Answer: 84 to 89 °C

Question: For `CCNC(=O)c1c(Cl)cccc1[Si](C)(C)C(C)C`, which melting point is on record?
Answer: 98 to 100 °C

Question: With `Nc1cc(C(=O)NNC(=O)Cc2cccc(O)c2)ccc1O` as the molecule, how does the melting point read?
Answer: 264 to 265 °C

Question: With `CC(C#N)=C1CCN(c2ccc(N3C[C@H](CNC(=O)C(Cl)(Cl)Cl)OC3=O)cc2F)CC1` as the molecule, how does the melting point read?
Answer: 166 to 168 °C

Question: With `CON(C)C(=O)c1ccc(Cl)c(Cl)c1` as the molecule, how does the melting point read?
Answer: 39.5 to 43.2 °C

Question: Which melting point does the source give for `COc1cc(O)ccc1C=CC(=O)CC(C)=O` here?
Answer: 139 to 142 °C

Question: With `Cc1ccc(S(=O)(=O)c2ccc(Cl)c(NC(=O)N[C@@H](Cc3ccc(NC(=O)c4c(Cl)cccc4Cl)cc3)C(=O)O)c2)cc1` as the molecule, how does the melting point read?
Answer: 241 °C

Question: For `CCOC(=O)c1cn(Cc2ccccc2OC)c2sc(-c3ccc(OC)cc3)c(C)c2c1=O`, which melting point is on record?
Answer: 165 to 167 °C

Question: With `CCSC1CCC(=O)N1S(=O)(=O)c1ccccc1` (stereo not given) as the molecule, how does the melting point read?
Answer: 100 to 113 °C

Question: Which melting point does the source give for `CCCOC(=O)C1CCC2C3CCC4CC(O)C(O)CC4(C)C3C(NCCC(C)C)CC12C` (stereo not given) here?
Answer: 140 to 142 °C

Question: With `COC(COC(=O)C1=C(C)NC2=C(C(=O)CNC2)C1c1cccc(Cl)c1Cl)c1ccccc1` (stereo not given) as the molecule, how does the melting point read?
Answer: 150 to 153 °C

Question: For `O=C(O)c1cc2cc(Cl)ccc2nc1N[C@@H](Cc1ccc([N+](=O)[O-])cc1)C(=O)O`, which melting point is on record?
Answer: 174 to 176 °C

Question: For `N#CNC(=N)NC1CC1`, which melting point is on record?
Answer: 106 °C

Question: For `CCN(CC)c1ccc(/C=C/C(=O)CC(=O)/C=C/c2ccc(O)c(OC)c2)c(O)c1`, which melting point is on record?
Answer: 89 to 92 °C
